Key:
Assay type in all cases: cell-based
[1] = tested on: Pseudomonas aeruginosa, ATCC 9027; test: Sanitization study 1: AxiChrom 300 column packed with resin inoculated with challenging organism, sanitized with peracetic acid
Protocol: (§1) A predefined sanitization method based on peracetic acid (PAA) as sanitization agent was evaluated in an AxiChrom™ 300 column (GE Healthcare) packed with agarose beads, as used in the MabSelect™ SuRe Protein A resin (GE Healthcare), by triplicate studies using P. aeruginosa as challenging organism. All parts in contact with the process flow including the resin were pre-cleaned, challenged, sanitized and evaluated. Microbial sampling was performed at predetermined sites on the system. Flow through samples were collected from the process chamber during the run and from the flush channel, process chamber and resin valve after finishing the sanitization method. Additional flow through samples were collected after five to six days of clean hold. Test methods used are presented below. The results were evaluated against stated acceptance criteria.
(§2) Pseudomonas aeruginosa, ATCC 9027, Gram negative bacteria
(§3) 1×10^7 CFU/ml or CFU/unit (CFU=Colony forming unit) […]
(§4) TSA plates streaked with P. aeruginosa ATCC 9027 (in-house glycerol stocks) were incubated in 37° C. over night (O.N.). […] O.N. Based on measured optical densities (ODs) of the inoculates and the assumption that 1 OD≈2×10^9 CFU/mL for P. aeruginosa, calculations were made on the volumes needed of the inoculate to be added to the resin slurry suspended in 50 mM NaCl. […] The microorganism concentrations were determined with test method 5. […]

[2] = tested on: Pseudomonas aeruginosa, ATCC 9027; test: Sanitization study 2: dual adapter strokes, 100 mM PAA in flush channel, slurry chased with 20 mM PAA, 5 day clean hold
Protocol: as §1, §2, §3, §4

[3] = tested on: Pseudomonas aeruginosa, ATCC 9027; test: Sanitization study 3: dual adapter strokes, 100 mM PAA in flush channel, resin valve opened and closed twice, 6 day clean hold
Protocol: as §1, §2, §3, §4

CC(=O)OO [PAA, peracetic acid]
Outcome against acceptance criteria, study 1 [1]: did not meet the acceptance criteria | Result study 1, resin after sanitization ([1]; test method 6 agar plate, 20 mM PAA): 0 CFU/g | Outcome against acceptance criteria, study 2 ([2]; positive control G showed no challenging organism): did meet the acceptance criteria | Result study 2, challenging organism in consolidation effluent / water rinse flowthrough after chasing slurry with 20 mM PAA ([2]; test method 5 viable count, samples G and J, before the sanitization method): 0 CFU/mL | Outcome against acceptance criteria, study 3 [3]: met the acceptance criteria | Challenging organism found after sanitization, study 3 ([3]; all sampling points): no challenging organism was discovered
